Measured values published in patent US8343981B2, “Heterocyclyl-substituted dihydroquinazolines and their use as antiviral agents” (AiCuris GmbH & Co. KG, priority 2003, dated 2013).

What was measured:
[1] = system: HCMV; test: Anti-HCMV cytopathogenicity test; format: cell-based, human cytomegalovirus; settings: for SI HCMV (selectivity index): CC50 (NHDF)/EC50 (HCMV); for EC50: Human betaherpesvirus 5, 144 h, HCMV-infected NHDF cells, M.O.I. 0.001-0.002, 6 days, 50% inhibition of cytopathic effect
Experimental: (§1) Anti-HCMV (Anti-Human Cytomegalovirus) Cytopathogenicity Tests The test compounds are employed as 50 millimolar (mM) solutions in dimethyl sulphoxide (DMSO). Ganciclovir®, Foscarnet® and Cidofovir® are used as reference compounds. After addition of in each case 2 μl of the 50, 5, 0.5 and 0.05 mM DMSO stock solutions to 98 μl portions of cell culture medium in row […] for duplicate determinations, 1:2 dilutions are carried out with 50 μl portions of medium up to row 11 of the 96-well plate. The wells in rows 1 and 12 each contain 50 μl of medium. Then 150 μl portions of a suspension of 1×10^4 cells (human prepuce fibroblasts [NHDF]) are pipetted into each of the wells (row 1=cell control) and, in rows 2-12, a mixture of HCMV-infected and uninfected NHDF cells (M.O.I.=0.001-0.002), i.e. 1-2 infected cells per 1000 uninfected cells. Row 12 (without substance) serves as virus control. The final test concentrations are 250-0.0005 μM. The plates are incubated at 37° C./5% CO2 for 6 days, i.e. until all the cells are infected in the virus controls (100% cytopathogenic effect [CPE]). The wells are then fixed and stained by adding a mixture of formalin and Giemsa's dye (30 minutes), washed with double-distilled water and dried in a drying oven at 50° C. The plates are then assessed visually using an overhead microscope (Plaque Multiplier from Technomara). The following data can be acquired from the test plates: • CC50 (NHDF)=substance concentration in μM at which no visible cytostatic effects on the cells are evident by comparison with the untreated cell control; • EC50 (HCMV)=substance concentration in μM which inhibits the CPE (cytopathic effect) by 50% compared with the untreated virus control; • SI (selectivity index)=CC50 (NHDF)/EC50 (HCMV).

[2] = Cytostatic effect on NHDF cells in the anti-HCMV cytopathogenicity test; format: cell-based; settings: NHDF cells (human prepuce fibroblasts), 6 days incubation, visual assessment, concentration at which no visible cytostatic effects are evident
Experimental: as §1

Row | EC50 [1] | Compound | SI HCMV (selectivity index) [1] | CC50 at 6 days [2]
1 | 0.04 µM | COc1ccc(C(F)(F)F)cc1N1C(N2CCN3c4cccc(C)c4CC3C2)=Nc2c(F)cccc2C1CC(=O)O (stereo not drawn) [Example 9, [8-Fluoro-3-[2-methoxy-5-(trifluoromethyl)phenyl]-2-(9-methyl-3,4,10,10a-tetra-hydropyrazino[1,2-a]indol-2(1H)-yl)-3,4-dihydroquinazolin-4-yl]acetic acid] | 600 | 24 µM
2 | 0.09 µM | COc1ccc(C(F)(F)F)cc1N1C(N2CCn3c(cc4c(C)cccc43)C2)=Nc2c(F)cccc2C1CC(=O)O (single isomer, unassigned) [Example 2] | 233 | 21 µM
3 | 0.12 µM | COc1ccc(C(F)(F)F)cc1N1C(N2CCn3c(cc4c(F)cccc43)C2)=Nc2c(F)cccc2C1CC(=O)O (single isomer, unassigned) [Example 4] | 117 | 14 µM
4 | 0.02 µM | COc1ccc(C(F)(F)F)cc1N1C(N2CCN3c4ccc(F)cc4CC3C2)=Nc2c(F)cccc2C1CC(=O)O (single isomer, unassigned) [Example 16, {8-Fluoro-2-(8-fluoro-3,4,10,10a-tetrahydropyrazino[1,2-a]indol-2(1H)-yl)-3-[2-methoxy-5-(trifluoromethyl)phenyl]-3,4-dihydroquinazolin-4-yl}acetic acid] | 1050 | 21 µM
